How the values were obtained:
[1] = test system: Candida albicans TIMM1768; assay: In vitro screening of material performing synergistic effect (10 min contact, crystal violet staining, absorbance 620 nm); format: cell-based; conditions: for synergistic effect by the combined use with a protamine hydrolysate: combined with protamine hydrolysate 0.125 or 2.0 mg/mL; for antibacterial activity in single use (relative absorbance, blank = 1): 0.008-1 mg/mL
Excerpt: Candida albicans TIMM1768
Hinokitiol (manufactured by Kiseitech Co., Ltd.), terpinen-4-ol (manufactured by Tokyo Chemical Industry, Co., Ltd.), geraniol (manufactured by Kanto Chemical Co., Inc.), menthol (manufactured by Wako Pure Chemical Industries, Ltd.), cinnamaldehyde (manufactured by Wako Pure Chemical Industries, Ltd.) and capric acid (manufactured by Wako Pure Chemical Industries, Ltd.) were individually dissolved in RPMI medium so that the concentration in a test material was 0.008, 0.04, 0.2, 1 mg/mL, and the protamine hydrolysate prepared according to Example 1 was dissolved so that the concentration of the protamine hydrolysate in a test material was 0, 0.125, 2.0 mg/mL, and the solutions were subjected to the test. Further, 0.002, 0.008, 0.031, 0.125, 0.5, 2, 8, 32 mg/mL solutions using the protamine hydrolysate singly were subjected to the test. Evaluation method
C. albicans TIMM1768 strain was added to a 96 well microplate each in an amount of 200 μL so that 2.5×10^5 cells/well, and cultured for 2.5 to 3.5 hours at 37° C. under 5% CO2. After cultivation, each medium was removed under suction, and each test material was added in an amount of 200 μL/well. After allowing to stand still at 37° C. for 10 minutes, each sample solution was removed under suction, and RPMI medium was added in an amount of 200 μL/well, and cultured for 2.5 hours at 37° C. under 5% CO2. After cultivation, each sample was stained with crystal violet and the absorbance at 620 nm was measured. The antibacterial activity was expressed in terms of the relative value of each experimental section when the blank absorbance was 1.
The results of in vitro evaluation when using a protamine hydrolysate and terpene alcohols in combination are shown in FIGS. 1 to 6, and the result of in vitro evaluation when using a protamine hydrolysate singly is shown in FIG. 7. In FIGS. 1 to 6, ♦ represents the result of single use of terpene alcohols, ▪ represents the result of the combined use with a protamine hydrolysate 0.125 mg/ml, and ▴ represents the result of the combined use with a protamine hydrolysate 2.0 mg/ml, respectively.

[2] = test system: Candida albicans TIMM1768; assay: In vitro combined use of protamine hydrolysate and Hinokitiol (16 h culture, crystal violet), IC90 and FIC index; format: cell-based; conditions: TIMM1768, Pro 0, none printed in the table, read-out: IC90 of hinokitiol alone
Method: FIC index=A1/A0+B1/B0 (1) • A0: MIC when agent A is used alone • A1: MIC of agent A when agent A and agent B are used in combination • B0: MIC when agent B is used alone • B1: MIC of agent B when agent A and agent B are used in combination Evaluation of synergistic effect by FIC index • FIC≦0.5: synergistic effect • 0.5<FIC≦1.0: additive effect • 1.0<FIC≦2.0: no relation • 2.0<FIC: antagonistic effect
Hinokitiol (manufactured by Kiseitech Co., Ltd.) was dissolved in RPMI medium so that the concentration in each test material was 0, 0.004, 0.008, 0.016, 0.031, 0.063, 0.125, 0.25, 0.5, or 1 μg/mL, and the protamine hydrolysate prepared according to Example 1 was dissolved so that the concentration of the protamine hydrolysate in each test material was 0, 0.156, 0.313, 0.625, 1.25, 2.5, 5, or 10 μg/mL, and they were subjected to the test.
C. albicans TIMM1768 strain was diluted with RPMI medium so that 5.0×10^3 cells/m L, then, added to a 96 well microplate each in an amount of 100 μL. The protamine hydrolysate solution was added each in an amount of 50 μL/well, then, Hinokitiol was added each in an amount of 50 μL/well. After cultivation for 16 hours at 37° C. under 5% CO2, each sample was stained with crystal violet and the absorbance at 620 nm was measured.

Question: For `CC1=CCC(O)(C(C)C)CC1` (stereo not shown) [terpinen-4-ol], which “synergistic effect by the combined use with a protamine hydrolysate” value (“synergistic effect by the combined use” below) [1] is on record?
Answer: the activity was slightly improved by the combined use with a protamine hydrolysate

Question: And the “antibacterial activity in single use (relative absorbance, blank = 1)” value [1]?
Answer: low activity

Question: What does the source list for `CC1CCC(C(C)C)C(O)C1` (stereo not shown) [menthol]?
Answer: synergistic effect by the combined use with a protamine hydrolysate [1]: the activity was slightly improved by the combined use with a protamine hydrolysate; antibacterial activity in single use (relative absorbance, blank = 1) [1]: low activity

Question: `O=CC=Cc1ccccc1` [Cinnamaldehyde, cinnamaldehyde, reference compound] was tested. Which “synergistic effect by the combined use” value [1] did it give?
Answer: the synergistic effect by the combined use with a protamine hydrolysate was not recognized

Question: And the “antibacterial activity in single use (relative absorbance, blank = 1)” value [1]?
Answer: little antibacterial activity

Question: With `CC(C)=CCC/C(C)=C/CO` [geraniol] as the compound, how does the “synergistic effect by the combined use” value [1] read?
Answer: the activity was slightly improved by the combined use with a protamine hydrolysate

Question: And the “antibacterial activity in single use (relative absorbance, blank = 1)” value [1]?
Answer: low activity

Question: What does the source list for `CCCCCCCCCC(=O)O` [capric acid, reference compound]?
Answer: synergistic effect by the combined use with a protamine hydrolysate [1]: the synergistic effect by the combined use with a protamine hydrolysate was not recognized; antibacterial activity in single use (relative absorbance, blank = 1) [1]: little antibacterial activity

Question: How did the IC90 [2] turn out when `CC(C)c1cccc(=O)c(O)c1` [Hinokitiol] was run?
Answer: 0.77 µg/mL

Question: And the “synergistic effect by the combined use” value [1]?
Answer: a synergistic effect of improving activity by the combined use with a protamine hydrolysate was recognized

Question: What about the “antibacterial activity in single use (relative absorbance, blank = 1)” value [1] of the same compound?
Answer: showed an antibacterial activity even in the single use

Source: patent US20170354177A1, “ANTIFUNGAL COMPOSITION COMPRISING ANTIFUNGAL PEPTIDE AND TERPENE ALCOHOL” (MARUHA NICHIRO CORPORATION, priority 2014, published 2017)
